Experimental data taken from patent US20190343846A1, “PREPARATION OF SOLID CYCLODEXTRIN COMPLEXES FOR OPHTHALMIC ACTIVE PHARMACEUTICAL INGREDIENT DELIVERY” (OCULIS SA, priority 2016, published 2019).
≈ marks a conversion by molar mass, not a printed value.

Assays:
[1] = 25° C.; cited from earlier work
[2] = Solubility of kinase inhibitors in aqueous γ-cyclodextrin media; type: physicochemical; conditions: aqueous with cosolvent or surfactant or cyclodextrin, thermodynamic from solid
Method: Kinase inhibitors were suspended in aqueous media consisting of pure water, aqueous γ-cyclodextrin solution, aqueous solution containing γ-cyclodextrin and tyloxapol (1% w/v), and aqueous eye drop medium containing γ-cyclodextrin, benzalkonium chloride (0.02% w/v), disodium edetate (0.10% w/v) and sodium chloride (0.05% w/v). The concentration of γ-cyclodextrin varied depending on the kinase inhibitor. The solubility was determined as described in Example 10.

[3] = Solubility of kinase inhibitors in pure water (S0) from phase-solubility profiles; type: physicochemical; conditions: for solubility: 25 °C, water, thermodynamic from solid, read-out: S0 (mg/mL), solubility in pure water
From the text: (§1) Kinase inhibitors were suspended in aqueous solutions containing from 1% (w/v) to 15% (w/v) γ-cyclodextrin.

[4] = Stability constant (K1:1) of active pharmaceutical ingredient/γ-cyclodextrin complexes from phase-solubility profiles; type: physicochemical; conditions: initial linear part of phase-solubility profile
From the text: as §1

[5] = aqueous eye drop medium with 4% w/v γ-cyclodextrin, eye drop medium: 4 % w/v γ-cyclodextrin, benzalkonium chloride 0.02%, disodium edetate 0.10%, sodium chloride 0.05%, read-out: Solubility (mg/mL) Eye drops
[6] = aqueous solution with 4 % w/v γ-cyclodextrin and tyloxapol (1% w/v), read-out: Solubility (mg/mL) Tyloxapol
[7] = aqueous γ-cyclodextrin solution, 4 % w/v γ-cyclodextrin, read-out: Solubility (mg/mL) γ-Cyclodextrin

Compound: OC[C@H]1O[C@@H]2O[C@H]3[C@H](O)[C@@H](O)[C@@H](O[C@H]4[C@H](O)[C@@H](O)[C@@H](O[C@H]5[C@H](O)[C@@H](O)[C@@H](O[C@H]6[C@H](O)[C@@H](O)[C@@H](O[C@H]7[C@H](O)[C@@H](O)[C@@H](O[C@H]1[C@H](O)[C@H]2O)O[C@@H]7CO)O[C@@H]6CO)O[C@@H]5CO)O[C@@H]4CO)O[C@@H]3CO [α-cyclodextrin]
- solubility in pure water [1]: 129500 ± 700 µg/mL (≈ 133000 µM)

Compound: CC1(C)CNc2cc(NC(=O)c3cccnc3NCc3ccncc3)ccc21 [Motesanib]
- solubility ([2]; aqueous eye drop medium with 8% w/v γ-cyclodextrin, eye drop medium: 8 % w/v γ-cyclodextrin, benzalkonium chloride 0.02%, disodium edetate 0.10%, sodium chloride 0.05%, read-out: Solubility (mg/mL) Eye drops): 0.07 mg/mL (≈ 187 µM)
- solubility ([2]; aqueous solution with 8 % w/v γ-cyclodextrin and tyloxapol (1% w/v), read-out: Solubility (mg/mL) Tyloxapol): 0.04 mg/mL (≈ 107 µM)
- solubility ([2]; aqueous γ-cyclodextrin solution, 8 % w/v γ-cyclodextrin, read-out: Solubility (mg/mL) γ-Cyclodextrin): 0.09 mg/mL (≈ 241 µM)
- solubility [3]: 0.014 mg/mL (≈ 37.5 µM)
- K1:1 (M^−1), stability constant of drug/γ-cyclodextrin complex [4]: 140 M⁻¹

Compound: CNC(=O)c1ccccc1Sc1ccc2c(/C=C/c3ccccn3)n[nH]c2c1 [Axitinib]
- solubility [2, 5]: 0.007 mg/mL (≈ 18.1 µM)
- solubility [2, 6]: 0.008 mg/mL (≈ 20.7 µM)
- solubility [2, 7]: 0.003 mg/mL (≈ 7.76 µM)
- solubility [3]: 0.0004 mg/mL (≈ 1.03 µM)
- K1:1 (M^−1), stability constant of drug/γ-cyclodextrin complex [4]: 260 M⁻¹

Compound: OC[C@H]1O[C@@H]2O[C@H]3[C@H](O)[C@@H](O)[C@@H](O[C@H]4[C@H](O)[C@@H](O)[C@@H](O[C@H]5[C@H](O)[C@@H](O)[C@@H](O[C@H]6[C@H](O)[C@@H](O)[C@@H](O[C@H]7[C@H](O)[C@@H](O)[C@@H](O[C@H]8[C@H](O)[C@@H](O)[C@@H](O[C@H]9[C@H](O)[C@@H](O)[C@@H](O[C@H]1[C@H](O)[C@H]2O)O[C@@H]9CO)O[C@@H]8CO)O[C@@H]7CO)O[C@@H]6CO)O[C@@H]5CO)O[C@@H]4CO)O[C@@H]3CO [γ-cyclodextrin]
- solubility in pure water [1]: 249200 ± 200 µg/mL (≈ 192000 µM)

Compound: COc1cc2c(Oc3ccc4[nH]c(C)cc4c3F)ncnc2cc1OCCCN1CCCC1 [Cediranib]
- solubility ([2]; aqueous eye drop medium with 12% w/v γ-cyclodextrin, eye drop medium: 12 % w/v γ-cyclodextrin, benzalkonium chloride 0.02%, disodium edetate 0.10%, sodium chloride 0.05%, read-out: Solubility (mg/mL) Eye drops): 4.1 mg/mL (≈ 9100 µM)
- solubility ([2]; aqueous solution with 12 % w/v γ-cyclodextrin and tyloxapol (1% w/v), read-out: Solubility (mg/mL) Tyloxapol): 2.8 mg/mL (≈ 6220 µM)
- solubility ([2]; aqueous γ-cyclodextrin solution, 12 % w/v γ-cyclodextrin, read-out: Solubility (mg/mL) γ-Cyclodextrin): 2 mg/mL (≈ 4440 µM)
- solubility [3]: 1.2 mg/mL (≈ 2660 µM)
- K1:1 (M^−1), stability constant of drug/γ-cyclodextrin complex [4]: 23 M⁻¹

Compound: CN1CCN(c2ccc3nc(-c4c(N)c5c(F)cccc5[nH]c4=O)[nH]c3c2)CC1 [Dovitinib]
- S0 (mg/mL), solubility in pure water [3]: 0.006 mg/mL
- K1:1 (M^−1), stability constant of drug/γ-cyclodextrin complex [4]: 680 M⁻¹

Compound: Cc1ccc(Nc2nccc(N(C)c3ccc4c(C)n(C)nc4c3)n2)cc1S(N)(=O)=O [Pazopanib]
- solubility ([2]; aqueous eye drop medium with 16% w/v γ-cyclodextrin, eye drop medium: 16 % w/v γ-cyclodextrin, benzalkonium chloride 0.02%, disodium edetate 0.10%, sodium chloride 0.05%, read-out: Solubility (mg/mL) Eye drops): 0.01 mg/mL (≈ 22.9 µM)
- solubility ([2]; aqueous solution with 16 % w/v γ-cyclodextrin and tyloxapol (1% w/v), read-out: Solubility (mg/mL) Tyloxapol): 0.006 mg/mL (≈ 13.7 µM)
- solubility ([2]; aqueous γ-cyclodextrin solution, 16 % w/v γ-cyclodextrin, read-out: Solubility (mg/mL) γ-Cyclodextrin): 0.007 mg/mL (≈ 16 µM)
- solubility [3]: 0.0006 mg/mL (≈ 1.37 µM)
- K1:1 (M^−1), stability constant of drug/γ-cyclodextrin complex [4]: 13 M⁻¹

Compound: CNC(=O)c1cc(Oc2ccc(NC(=O)Nc3ccc(Cl)c(C(F)(F)F)c3)c(F)c2)ccn1 [Regorafenib]
- solubility [2, 5]: 0.0008 mg/mL (≈ 1.66 µM)
- solubility [2, 6]: 0.005 mg/mL (≈ 10.4 µM)
- solubility [2, 7]: 0.0005 mg/mL (≈ 1.04 µM)
- solubility [3]: 0.0001 mg/mL (≈ 0.207 µM)
- K1:1 (M^−1), stability constant of drug/γ-cyclodextrin complex [4]: 94 M⁻¹
